Laboratory results as given in PubChem BioAssay AID1918991 (Molecular Pharmacology Branch, DTP, NCI, 2023).

Tested on: 186277-243-T-J2-PDC complex spheroid growth
Assay: Anticancer human tumor 186277-243-T-J2-PDC patient-derived colon adenocarcinoma cell line growth inhibition [AhR]
Details: for IC50: curve of first compound; for viability, T/C: stronger effect = lower value
Procedure, shortened: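 Complex tumor spheroids co-cultured with HUVEC and human MSC stroma; AhR antagonists tested in combination with standard-of-care and investigational agents. Top concentration at or near clinical Cmax (else 10 microM), half-log dilutions; growth expressed as percent test/control.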

[1] = second compound 0.1 µM, first compound 0.0316 µM
[2] = second compound 0.1 µM, first compound 0.1 µM
[3] = second compound 0.1 µM, first compound 0.316 µM
[4] = second compound 0.1 µM, first compound 1 µM
[5] = second compound 0.1 µM, first compound 3.16 µM
[6] = second compound 0.1 µM, first compound 10 µM
[7] = second compound 0.316 µM, first compound 0.0316 µM
[8] = second compound 0.316 µM, first compound 0.1 µM
[9] = second compound 0.316 µM, first compound 0.316 µM
[10] = second compound 0.316 µM, first compound 1 µM
[11] = second compound 0.316 µM, first compound 3.16 µM
[12] = second compound 0.316 µM, first compound 10 µM
[13] = second compound 1 µM, first compound 0.0316 µM
[14] = second compound 1 µM, first compound 0.1 µM
[15] = second compound 1 µM, first compound 0.316 µM
[16] = second compound 1 µM, first compound 1 µM
[17] = second compound 1 µM, first compound 3.16 µM
[18] = second compound 1 µM, first compound 10 µM
[19] = second compound 3.16 µM, first compound 0.0316 µM
[20] = second compound 3.16 µM, first compound 0.1 µM
[21] = second compound 3.16 µM, first compound 0.316 µM
[22] = second compound 3.16 µM, first compound 1 µM
[23] = second compound 3.16 µM, first compound 3.16 µM
[24] = second compound 3.16 µM, first compound 10 µM
[25] = second compound 10 µM, first compound 0.0316 µM
[26] = second compound 10 µM, first compound 0.1 µM
[27] = second compound 10 µM, first compound 0.316 µM
[28] = second compound 10 µM, first compound 1 µM
[29] = second compound 10 µM, first compound 3.16 µM
[30] = second compound 10 µM, first compound 10 µM
[31] = second compound 0.1 µM, first compound 0.00316 µM
[32] = second compound 0.1 µM, first compound 0.01 µM
[33] = second compound 0.316 µM, first compound 0.00316 µM
[34] = second compound 0.316 µM, first compound 0.01 µM
[35] = second compound 1 µM, first compound 0.00316 µM
[36] = second compound 1 µM, first compound 0.01 µM
[37] = second compound 3.16 µM, first compound 0.00316 µM
[38] = second compound 3.16 µM, first compound 0.01 µM
[39] = second compound 10 µM, first compound 0.00316 µM
[40] = second compound 10 µM, first compound 0.01 µM
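Note: spheroids exposed to compounds for seven days before the viability read.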
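Throughout, for viability, T/C: luminescent signal used as a stand-in for viable cell amount; 100% = DMSO vehicle control wells.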

Compound	IC50 (second compound 0.1 µM) [nM]	IC50 (second compound 0.316 µM) [nM]	IC50 (second compound 1 µM) [nM]	IC50 (second compound 3.16 µM) [nM]	IC50 (second compound 10 µM) [nM]	viability, T/C [1] [%]	viability, T/C [2] [%]	viability, T/C [3] [%]	viability, T/C [4] [%]	viability, T/C [7] [%]	viability, T/C [8] [%]	viability, T/C [9] [%]	viability, T/C [10] [%]	viability, T/C [13] [%]	viability, T/C [14] [%]	viability, T/C [15] [%]	viability, T/C [19] [%]	viability, T/C [20] [%]	viability, T/C [25] [%]	viability, T/C [26] [%]	also measured
CC(C)c1c(-c2ccccc2)nc2c(C#N)c[nH]n2c1=O + Cc1ccccc1N=Nc1ccc(NC(=O)c2ccnn2C)c(C)c1	> 10000	> 10000	> 10000	> 10000	> 10000	97.4	110	104	105	103	104	103	98	98.9	106	115	95.2	108	102	97.2	viability, T/C [5]: 109%; viability, T/C [6]: 97.5%; viability, T/C [11]: 112%; viability, T/C [12]: 98%; viability, T/C [16]: 96.4%; viability, T/C [17]: 98.3%; viability, T/C [18]: 104%; viability, T/C [21]: 94.3%; viability, T/C [22]: 99.7%; viability, T/C [23]: 99.7%; viability, T/C [24]: 98.7%; viability, T/C [27]: 92.6%; viability, T/C [28]: 101%; viability, T/C [29]: 85.8%; viability, T/C [30]: 90.1%
CC[C@@]1(O)C(=O)OCc2c1cc1n(c2=O)Cc2cc3c(CN(C)C)c(O)ccc3nc2-1 + Cc1cncc(-c2nc(NCCc3c[nH]c4ccccc34)c3ncn(C(C)C)c3n2)c1	> 100	> 100	> 100	> 100	1.33	92.6	62			86.2	64.8			85.2	69.4		87.4	68.9	31	39	viability, T/C (second compound 0.1 µM, first compound 0.000316 µM): 98.8%; viability, T/C (second compound 0.1 µM, first compound 0.001 µM): 96.3%; viability, T/C [31]: 118%; viability, T/C [32]: 112%; viability, T/C (second compound 0.316 µM, first compound 0.000316 µM): 107%; viability, T/C (second compound 0.316 µM, first compound 0.001 µM): 101%; viability, T/C [33]: 104%; viability, T/C [34]: 135%; viability, T/C (second compound 1 µM, first compound 0.000316 µM): 99.6%; viability, T/C (second compound 1 µM, first compound 0.001 µM): 108%; viability, T/C [35]: 125%; viability, T/C [36]: 140%; viability, T/C (second compound 3.16 µM, first compound 0.000316 µM): 118%; viability, T/C (second compound 3.16 µM, first compound 0.001 µM): 109%; viability, T/C [37]: 145%; viability, T/C [38]: 135%; viability, T/C (second compound 10 µM, first compound 0.000316 µM): 49.5%; viability, T/C (second compound 10 µM, first compound 0.001 µM): 57.9%; viability, T/C [39]: 38.7%; viability, T/C [40]: 28.6%
COc1cc(C2c3cc4c(cc3C(OC3OC5COC(C)OC5C(O)C3O)C3COC(=O)C23)OCO4)cc(OC)c1O (stereo not given) + Cc1cncc(-c2nc(NCCc3c[nH]c4ccccc34)c3ncn(C(C)C)c3n2)c1	2130	1440	1600	1450	48.5	119	111	113	58.7	119	124	107	53.4	110	149	99.8	127	147	55	44.5	viability, T/C [5]: 52%; viability, T/C [6]: 21.9%; viability, T/C [11]: 48%; viability, T/C [12]: 21.1%; viability, T/C [16]: 59.5%; viability, T/C [17]: 44.6%; viability, T/C [18]: 19.9%; viability, T/C [21]: 89.3%; viability, T/C [22]: 59.4%; viability, T/C [23]: 42.7%; viability, T/C [24]: 19.9%; viability, T/C [27]: 20.8%; viability, T/C [28]: 24.3%; viability, T/C [29]: 22.9%; viability, T/C [30]: 9.36%
COc1cccc2c1C(=O)c1c(O)c3c(c(O)c1C2=O)CC(O)(C(=O)CO)CC3OC1CC(N)C(O)C(C)O1 (stereo not given) + Cc1cncc(-c2nc(NCCc3c[nH]c4ccccc34)c3ncn(C(C)C)c3n2)c1	200	171	163	126	< 31.6	107	78.6	32.6	0.46	110	70.4	28.2	0.27	93.2	71.3	21.2	83.5	59.9	21.9	18.5	viability, T/C [5]: 0.03%; viability, T/C [6]: 0.25%; viability, T/C [11]: 0.04%; viability, T/C [12]: 0.22%; viability, T/C [16]: 0.08%; viability, T/C [17]: 0.32%; viability, T/C [18]: 0.26%; viability, T/C [21]: 10.8%; viability, T/C [22]: 0.05%; viability, T/C [23]: 0.21%; viability, T/C [24]: 0.79%; viability, T/C [27]: 3.26%; viability, T/C [28]: 0.12%; viability, T/C [29]: 0.49%; viability, T/C [30]: 0.31%
Nc1ccn(C2OC(CO)C(O)C2(F)F)c(=O)n1 (stereo not given) + Cc1cncc(-c2nc(NCCc3c[nH]c4ccccc34)c3ncn(C(C)C)c3n2)c1	< 31.6	< 31.6	< 31.6	< 31.6	< 31.6	7.18	8.73	9.08	7.46	7.58	7.59	8.77	7.4	8.42	8.73	8.67	8.88	9.87	9.79	9.68	viability, T/C [5]: 9.53%; viability, T/C [6]: 8.43%; viability, T/C [11]: 9.8%; viability, T/C [12]: 10.2%; viability, T/C [16]: 8.54%; viability, T/C [17]: 10.4%; viability, T/C [18]: 9.89%; viability, T/C [21]: 8.78%; viability, T/C [22]: 9.16%; viability, T/C [23]: 10.2%; viability, T/C [24]: 11.2%; viability, T/C [27]: 7.97%; viability, T/C [28]: 8.56%; viability, T/C [29]: 9.28%; viability, T/C [30]: 10.2%
Nc1ncn(C2CC(O)C(CO)O2)c(=O)n1 (stereo not given) + Cc1cncc(-c2nc(NCCc3c[nH]c4ccccc34)c3ncn(C(C)C)c3n2)c1	> 1000	> 1000	> 1000	> 1000	> 1000	91.4	119	147	143	107	113	137	150	99.9	126	156	111	118	56.7	46.6	viability, T/C [31]: 116%; viability, T/C [32]: 86.8%; viability, T/C [33]: 120%; viability, T/C [34]: 93.6%; viability, T/C [35]: 98.5%; viability, T/C [36]: 104%; viability, T/C [16]: 157%; viability, T/C [37]: 114%; viability, T/C [38]: 113%; viability, T/C [21]: 120%; viability, T/C [22]: 165%; viability, T/C [39]: 59.8%; viability, T/C [40]: 65.1%; viability, T/C [27]: 52.6%; viability, T/C [28]: 68.6%
